Measurements: patent publication US20130296392A1, “METHODS FOR THE TREATMENT OF OVERACTIVE BLADDER” (THERAVIDA, INC., priority 2012, published 2013)

Legend:
healthy individuals [1] = experiment: Dry mouth assessment by visual analog scale (VAS); format: in vivo, human; settings: for Change from Baseline of Dry Mouth Assessment (VAS), Mean: VAS 0=not dry, 10=very dry
Method: Stimulated salivary flow (SSF) and dry mouth (assessed using a “visual analog scale,” or VAS) were determined at frequent intervals after administration of each treatment. Urine frequency, urine volume/void, and fluid volume consumed were also assessed for each treatment.
The SSF values were tabulated at each time point and descriptive statistics were generated by treatment, for measured values and changes from pre-dose baseline. Total weight of saliva over time was analyzed using analysis of variance, with Tukey's method of comparison between treatments. Dry mouth was tabulated at each time point and descriptive statistics were generated by treatment, for measured values and changes from pre-dose baseline. Urine frequency, urine volume/void and fluid volume consumed were tabulated and summarized by treatment.
For qualitative assessment of dry mouth, the “visual analog scale,” or VAS, scale (0=not dry, 10=very dry, measured in centimeters) was used. Each subject was asked to mark a vertical line the VAS scale on how dry their mouth was at that moment.
VAS is a well-known method. In this method, subjects were shown a line scaled from 0 to 10 cm. Subjects were asked to rate the subjective criterion from 0-10 cm and make a mark on the line corresponding to their rating. For example, subjects were told that 0 cm on the line means no dry mouth at all and 10 cm on the line means extreme dry mouth. The subjects rated their extent of dry mouth on the line. Changes in the extent of dry mouth of a subject were measured using this technique throughout the treatment period.

healthy individuals [2] = experiment: Stimulated salivary flow (SSF), change from pre-dose baseline; format: in vivo, human
Method: Stimulated salivary flow (SSF) and dry mouth (assessed using a “visual analog scale,” or VAS) were determined at frequent intervals after administration of each treatment. Urine frequency, urine volume/void, and fluid volume consumed were also assessed for each treatment. […] SSF was measured in the following manner. […] The subject may have expectorated saliva in the containers several times if there was excessive saliva. The SSF values were tabulated at each time point and descriptive statistics were generated by treatment, for measured values and changes from pre-dose baseline. Total weight of saliva over time was analyzed using analysis of variance, with Tukey's method of comparison between treatments. Dry mouth was tabulated at each time point and descriptive statistics were generated by treatment, for measured values and changes from pre-dose baseline. Urine frequency, urine volume/void and fluid volume consumed were tabulated and summarized by treatment.

SMILES	Change from Baseline of Dry Mouth Assessment (VAS), Mean (healthy individuals [1]; 1 hour post-dose) [cm]	Change from Baseline of Dry Mouth Assessment (VAS), Mean (healthy individuals [1]; 2 hours post-dose) [cm]	Change from Baseline of Dry Mouth Assessment (VAS), Mean (healthy individuals [1]; 3 hours post-dose) [cm]	Change from Baseline of Dry Mouth Assessment (VAS), Mean (healthy individuals [1]; 4 hours post-dose) [cm]	Change from Baseline of Dry Mouth Assessment (VAS), Mean (healthy individuals [1]; 6 hours post-dose) [cm]	Change from Baseline of Dry Mouth Assessment (VAS), Mean (healthy individuals [1]; […] post-dose) [cm]	Mean SSF Change from Pre-dose Baseline (healthy individuals [2]; 1 hour post-dose) [g]	Mean SSF Change from Pre-dose Baseline (healthy individuals [2]; 2 hours post-dose) [g]	Mean SSF Change from Pre-dose Baseline (healthy individuals [2]; 3 hours post-dose) [g]	Mean SSF Change from Pre-dose Baseline (healthy individuals [2]; 4 hours post-dose) [g]	Mean SSF Change from Pre-dose Baseline (healthy individuals [2]; 6 hours post-dose) [g]	Mean SSF Change from Pre-dose Baseline (healthy individuals [2]; 9 hours post-dose) [g]	Mean SSF Change from Pre-dose Baseline (healthy individuals [2]; 12 hours post-dose) [g]	SSF after administration, in words (healthy individuals [2]; compared with placebo and pilocarpine alone (Treatment B))	Mean VAS scores of dry mouth over time (healthy individuals [1]; 1 hour and 2 hour time points, compared with each of the other treatments)
Cc1ccc(O)c([C@H](CCN(C(C)C)C(C)C)c2ccccc2)c1 [Treatment A, tolterodine]	0.03	0.63	0.97	0.56	0.00	0.56	-0.3	-0.42	-0.28	0.05	0.21	-0.06	0.27	decrease in SSF	
CC[C@@H]1C(=O)OC[C@@H]1Cc1cncn1C [Treatment B, pilocarpine]	−3.00	−2.34	−0.94	−0.69	−0.41	−1.38	4.55	2.33	1.07	0.64	0.32	-0.20	-0.08		markedly lower
